The CheMixHub ionic liquid set
± gives the uncertainty stated by the source.

Assay: xn = mol fraction of the nth substance listed
Conditions: for electrical conductivity: 298 K

CC[n+]1ccn(C)c1.F[B-](F)(F)F + C1COCCO1
100 kPa
Conditions | viscosity [mPa·s]
293.15 K, x2 = 0 | 50.5 ± 5.1
298.15 K, x2 = 0.2149 | 26.8 ± 2.7
303.15 K, x2 = 0 | 34.5 ± 3.5
303.15 K, x2 = 0.1664 | 25.1 ± 2.5
303.15 K, x2 = 0.2149 | 22.7 ± 2.3
303.15 K, x2 = 0.5453 | 9.3 ± 0.93
313.15 K, x2 = 0.2149 | 16.9 ± 1.7
323.15 K, x2 = 0 | 18.6 ± 1.9
323.15 K, x2 = 0.5077 | 6.59 ± 0.66
323.15 K, x2 = 0.5453 | 5.93 ± 0.6
333.15 K, x2 = 0.3591 | 7.8 ± 0.78
333.15 K, x2 = 0.5077 | 5.42 ± 0.55
353.15 K, x2 = 0.5453 | 3.52 ± 0.35

CC[n+]1ccn(C)c1.F[B-](F)(F)F + CC1COC(=O)O1
101 kPa
Conditions | electrical conductivity [S/m]
x2 = 0.16 | 1.5 ± 0.12
x2 = 0.83 | 1.68 ± 0.13
x2 = 0.89 | 1.46 ± 0.12

CC[n+]1ccn(C)c1.O=S(=O)([N-]S(=O)(=O)C(F)(F)F)C(F)(F)F + CC1COC(=O)O1
101.3 kPa
Conditions | viscosity [mPa·s]
288.15 K, x1 = 0.7977 | 34.2 ± 0.71
293.15 K, x1 = 0.3007 | 8.42 ± 0.18
293.15 K, x1 = 1 | 39.06 ± 0.82
298.15 K, x1 = 0.2127 | 5.58 ± 0.12
298.15 K, x1 = 0.7004 | 20.1 ± 0.42
303.15 K, x1 = 0.1 | 3.358 ± 0.071
303.15 K, x1 = 0.4227 | 8.98 ± 0.19
303.15 K, x1 = 0.7601 | 18.97 ± 0.4
308.15 K, x1 = 0.4227 | 7.89 ± 0.16
308.15 K, x1 = 0.6015 | 12.59 ± 0.26
308.15 K, x1 = 0.7601 | 16.83 ± 0.35
308.15 K, x1 = 1 | 23.19 ± 0.48
313.15 K, x1 = 0.7601 | 14.7 ± 0.31
313.15 K, x1 = 0.8098 | 16.11 ± 0.34
313.15 K, x1 = 1 | 19.94 ± 0.42
318.15 K, x1 = 0.3007 | 4.614 ± 0.097
318.15 K, x1 = 0.6015 | 9.46 ± 0.2
318.15 K, x1 = 0.7004 | 11.6 ± 0.24
318.15 K, x1 = 0.9533 | 16.99 ± 0.35
323.15 K, x1 = 0.6015 | 8.33 ± 0.17
328.15 K, x1 = 0.2127 | 3.014 ± 0.063
328.15 K, x1 = 0.4227 | 5.07 ± 0.11
328.15 K, x1 = 0.5146 | 6.11 ± 0.13
328.15 K, x1 = 0.7601 | 9.85 ± 0.21
328.15 K, x1 = 0.7977 | 10.52 ± 0.22
333.15 K, x1 = 0.1 | 1.979 ± 0.042
333.15 K, x1 = 0.3007 | 3.477 ± 0.073
333.15 K, x1 = 0.658 | 7.31 ± 0.15
333.15 K, x1 = 0.7004 | 7.92 ± 0.17
338.15 K, x1 = 0.1 | 1.838 ± 0.039
343.15 K, x1 = 0.5146 | 4.595 ± 0.096
343.15 K, x1 = 0.7601 | 6.96 ± 0.15
343.15 K, x1 = 0.7977 | 7.41 ± 0.15
343.15 K, x1 = 0.8098 | 7.59 ± 0.16
348.15 K, x1 = 0.1 | 1.599 ± 0.034
348.15 K, x1 = 0.2127 | 2.203 ± 0.047
348.15 K, x1 = 0.658 | 5.39 ± 0.11

CC(=O)[O-].CCC[N+]1(C)CCCC1 + CC#N
101 kPa
Conditions | electrical conductivity [S/m]
x2 = 0.75 | 3.18 ± 0.06
x2 = 0.775 | 3.51 ± 0.07
x2 = 0.799 | 3.72 ± 0.07
x2 = 0.825 | 3.86 ± 0.08
x2 = 0.849 | 3.9 ± 0.08
x2 = 0.875 | 3.92 ± 0.08
x2 = 0.9 | 3.85 ± 0.08
x2 = 0.911 | 3.75 ± 0.08
x2 = 0.921 | 3.63 ± 0.07
x2 = 0.94 | 3.35 ± 0.07

CC(O)C(=O)[O-].CCC[N+]1(C)CCCC1 + CC#N
101 kPa
Conditions | electrical conductivity [S/m]
x2 = 0.724 | 2.67 ± 0.05
x2 = 0.749 | 2.89 ± 0.06
x2 = 0.801 | 3.19 ± 0.06
x2 = 0.825 | 3.33 ± 0.07
x2 = 0.849 | 3.54 ± 0.07
x2 = 0.873 | 3.56 ± 0.07
x2 = 0.898 | 3.5 ± 0.07
x2 = 0.91 | 3.5 ± 0.07
x2 = 0.921 | 3.37 ± 0.07
x2 = 0.929 | 3.24 ± 0.07

CC(O)C(=O)[O-].CCC[N+]1(C)CCCCC1 + CC#N
101 kPa
Conditions | electrical conductivity [S/m]
x2 = 0.77 | 2.16 ± 0.04
x2 = 0.823 | 2.56 ± 0.05
x2 = 0.832 | 2.64 ± 0.05
x2 = 0.838 | 2.76 ± 0.06
x2 = 0.846 | 2.85 ± 0.06
x2 = 0.851 | 2.85 ± 0.06
x2 = 0.859 | 2.88 ± 0.06
x2 = 0.863 | 2.92 ± 0.06
x2 = 0.869 | 2.97 ± 0.06
x2 = 0.872 | 2.98 ± 0.06
x2 = 0.877 | 2.98 ± 0.06
x2 = 0.881 | 3.01 ± 0.06
x2 = 0.885 | 3.03 ± 0.06
x2 = 0.888 | 3.06 ± 0.06
x2 = 0.891 | 3.04 ± 0.06
x2 = 0.893 | 3.06 ± 0.06
x2 = 0.897 | 3.09 ± 0.06
x2 = 0.9 | 3.09 ± 0.06
x2 = 0.907 | 3.09 ± 0.06
x2 = 0.909 | 3.09 ± 0.06
x2 = 0.92 | 3.04 ± 0.06
x2 = 0.933 | 2.92 ± 0.06
x2 = 0.952 | 2.68 ± 0.05

CCCCCC[P+](CCCC)(CCCC)CCCC.F[B-](F)(F)F + CC#N
viscosity [mPa·s], 100 kPa
Conditions | x1 = 0.004011 | x1 = 0.008155 | x1 = 0.01203 | x1 = 0.01615 | x1 = 0.01996 | x1 = 0.02404 | x1 = 0.02792 | x1 = 0.03151 | x1 = 0.03559 | x1 = 0.03974
293.15 K | 0.374 ± 0.023 | 0.398 ± 0.024 | 0.419 ± 0.025 | 0.446 ± 0.027 | 0.47 ± 0.028 | 0.499 ± 0.03 | 0.526 ± 0.032 | 0.554 ± 0.034 | 0.585 ± 0.036 | 0.621 ± 0.038
298.15 K | 0.357 ± 0.022 | 0.379 ± 0.023 | 0.399 ± 0.024 | 0.423 ± 0.026 | 0.446 ± 0.027 | 0.472 ± 0.029 | 0.497 ± 0.03 | 0.523 ± 0.032 | 0.551 ± 0.033 | 0.585 ± 0.036
303.15 K | 0.341 ± 0.021 | 0.361 ± 0.022 | 0.38 ± 0.023 | 0.403 ± 0.024 | 0.423 ± 0.026 | 0.448 ± 0.027 | 0.47 ± 0.028 | 0.495 ± 0.03 | 0.521 ± 0.032 | 0.552 ± 0.034
308.15 K | 0.326 ± 0.02 | 0.345 ± 0.021 | 0.362 ± 0.022 | 0.383 ± 0.023 | 0.403 ± 0.024 | 0.425 ± 0.026 | 0.446 ± 0.027 | 0.469 ± 0.028 | 0.493 ± 0.03 | 0.522 ± 0.032
313.15 K | 0.313 ± 0.019 | 0.331 ± 0.02 | 0.347 ± 0.021 | 0.366 ± 0.022 | 0.384 ± 0.023 | 0.406 ± 0.025 | 0.425 ± 0.026 | 0.446 ± 0.027 | 0.468 ± 0.028 | 0.495 ± 0.03
318.15 K | 0.3 ± 0.018 | 0.317 ± 0.019 | 0.332 ± 0.02 | 0.35 ± 0.021 | 0.367 ± 0.022 | 0.387 ± 0.023 | 0.405 ± 0.025 | 0.424 ± 0.026 | 0.445 ± 0.027 | 0.47 ± 0.029

CC[n+]1ccn(C)c1.F[B-](F)(F)F + CC#N
Conditions | viscosity [mPa·s]
293.15 K, 100 kPa, x2 = 0.1787 | 25.2 ± 2.5
298.15 K, 100 kPa, x2 = 0.8301 | 1.14 ± 0.12
303.15 K, 101 kPa, x1 = 0.0999 | 0.71 ± 0.071
303.15 K, 101 kPa, x1 = 0.2 | 1.31 ± 0.13
303.15 K, 101 kPa, x1 = 0.2977 | 2.18 ± 0.22
303.15 K, 101 kPa, x1 = 0.3999 | 3.51 ± 0.35
303.15 K, 101 kPa, x1 = 0.4999 | 5.29 ± 0.53
303.15 K, 101 kPa, x1 = 0.5991 | 7.84 ± 0.79
303.15 K, 101 kPa, x1 = 0.7013 | 11 ± 1.1
303.15 K, 101 kPa, x1 = 0.8003 | 15.3 ± 1.5
303.15 K, 101 kPa, x1 = 0.9009 | 21 ± 2.1
303.15 K, 101 kPa, x1 = 1 | 28 ± 2.8
313.15 K, 100 kPa, x2 = 0.2803 | 10.5 ± 1.1
313.15 K, 100 kPa, x2 = 0.3682 | 7.5 ± 0.75
313.15 K, 101 kPa, x1 = 0.0999 | 0.638 ± 0.064
313.15 K, 101 kPa, x1 = 0.2 | 1.15 ± 0.12
313.15 K, 101 kPa, x1 = 0.2977 | 1.89 ± 0.19
313.15 K, 101 kPa, x1 = 0.3999 | 2.95 ± 0.3
313.15 K, 101 kPa, x1 = 0.4999 | 4.34 ± 0.44
313.15 K, 101 kPa, x1 = 0.5991 | 6.21 ± 0.62
313.15 K, 101 kPa, x1 = 0.7013 | 8.64 ± 0.87
313.15 K, 101 kPa, x1 = 0.8003 | 11.7 ± 1.2
313.15 K, 101 kPa, x1 = 0.9009 | 15.6 ± 1.6
313.15 K, 101 kPa, x1 = 1 | 20.4 ± 2.1
323.15 K, 100 kPa, x2 = 0 | 18.6 ± 1.9
323.15 K, 100 kPa, x2 = 0.2803 | 8.36 ± 0.84
323.15 K, 100 kPa, x2 = 0.3682 | 6.1 ± 0.61
323.15 K, 100 kPa, x2 = 0.7116 | 1.6 ± 0.16
323.15 K, 101 kPa, x1 = 0.0999 | 0.575 ± 0.058
323.15 K, 101 kPa, x1 = 0.2 | 1.02 ± 0.1
323.15 K, 101 kPa, x1 = 0.2977 | 1.67 ± 0.17
323.15 K, 101 kPa, x1 = 0.3999 | 2.52 ± 0.25
323.15 K, 101 kPa, x1 = 0.4999 | 3.64 ± 0.36
323.15 K, 101 kPa, x1 = 0.5991 | 5.11 ± 0.51
323.15 K, 101 kPa, x1 = 0.7013 | 6.95 ± 0.7
323.15 K, 101 kPa, x1 = 0.8003 | 9.17 ± 0.92
323.15 K, 101 kPa, x1 = 0.9009 | 12 ± 1.2
323.15 K, 101 kPa, x1 = 1 | 15.3 ± 1.5
333.15 K, 100 kPa, x2 = 0.2803 | 6.82 ± 0.69
333.15 K, 100 kPa, x2 = 0.7116 | 1.41 ± 0.14
333.15 K, 101 kPa, x1 = 0.0999 | 0.522 ± 0.052
333.15 K, 101 kPa, x1 = 0.2 | 0.917 ± 0.092
333.15 K, 101 kPa, x1 = 0.2977 | 1.48 ± 0.15
333.15 K, 101 kPa, x1 = 0.3999 | 2.2 ± 0.22
333.15 K, 101 kPa, x1 = 0.4999 | 3.13 ± 0.31
333.15 K, 101 kPa, x1 = 0.5991 | 4.34 ± 0.44
333.15 K, 101 kPa, x1 = 0.7013 | 5.76 ± 0.58
333.15 K, 101 kPa, x1 = 0.8003 | 7.47 ± 0.75
333.15 K, 101 kPa, x1 = 0.9009 | 9.51 ± 0.96
333.15 K, 101 kPa, x1 = 1 | 12.1 ± 1.2
343.15 K, 100 kPa, x2 = 0.3682 | 4.28 ± 0.43
343.15 K, 100 kPa, x2 = 0.7116 | 1.26 ± 0.13
343.15 K, 100 kPa, x2 = 0.8301 | 0.719 ± 0.072
